Source: PMC8882856, “The affinity and selectivity of α‐adrenoceptor antagonists, antidepressants and antipsychotics for the human α2A, α2B, and α2C‐adrenoceptors and comparison with human α1 and β‐adrenoceptors” (Pharmacology Research & Perspectives, 2022)
Like-named read-outs stand apart in the source and are kept apart here. Values belong to the molecule of their own block, whether it stands above or below them.

Key:
[1] = target: T1, human α2C‐adrenoceptor (Homo sapiens, UniProt P18825); assay: ^3H‐rauwolscine whole cell competition binding, CHO‐α2C cells
T1 sequence (P18825 1-462): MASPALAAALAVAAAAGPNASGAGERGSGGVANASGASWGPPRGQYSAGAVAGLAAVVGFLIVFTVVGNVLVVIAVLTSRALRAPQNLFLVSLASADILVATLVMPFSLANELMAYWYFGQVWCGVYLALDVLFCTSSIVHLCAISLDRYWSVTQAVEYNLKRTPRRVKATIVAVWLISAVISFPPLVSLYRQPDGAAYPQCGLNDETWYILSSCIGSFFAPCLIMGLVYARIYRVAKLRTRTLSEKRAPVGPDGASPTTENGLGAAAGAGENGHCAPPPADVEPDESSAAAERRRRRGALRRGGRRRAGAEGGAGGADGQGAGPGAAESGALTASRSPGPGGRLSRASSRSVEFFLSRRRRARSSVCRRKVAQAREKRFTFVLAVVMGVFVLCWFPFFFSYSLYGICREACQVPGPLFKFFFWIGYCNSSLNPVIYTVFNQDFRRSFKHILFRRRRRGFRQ

[2] = target: T2, human α2A‐adrenoceptor (Homo sapiens, UniProt P08913); assay: ^3H‐rauwolscine whole cell competition binding, CHO‐α2A cells
T2 sequence (P08913 1-465): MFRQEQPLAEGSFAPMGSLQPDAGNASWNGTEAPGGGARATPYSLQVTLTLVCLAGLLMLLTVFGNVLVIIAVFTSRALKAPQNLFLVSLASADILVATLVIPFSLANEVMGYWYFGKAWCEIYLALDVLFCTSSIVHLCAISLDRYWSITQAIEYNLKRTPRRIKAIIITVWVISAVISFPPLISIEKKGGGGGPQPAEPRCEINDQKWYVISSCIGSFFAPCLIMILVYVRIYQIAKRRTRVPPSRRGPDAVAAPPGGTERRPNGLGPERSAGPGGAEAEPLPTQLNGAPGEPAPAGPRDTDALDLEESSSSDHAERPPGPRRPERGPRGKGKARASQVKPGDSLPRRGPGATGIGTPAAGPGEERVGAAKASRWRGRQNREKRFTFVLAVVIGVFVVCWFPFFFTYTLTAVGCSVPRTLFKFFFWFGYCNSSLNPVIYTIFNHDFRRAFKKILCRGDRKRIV

[3] = target: human β2‐adrenoceptor (Homo sapiens, UniProt P07550); assay type: binding; settings: for IC50 (log) β2: printed as log IC50 bound (negative) in the Log KD β2 column, 3H-CGP12177
[4] = target: T3, human α2B‐adrenoceptor (Homo sapiens, UniProt P18089); assay: ^3H‐rauwolscine whole cell competition binding, CHO‐α2B cells; settings: for IC50 (log) α2B: printed as log IC50 bound (negative) in the Log KD α2B column, 3H-rauwolscine
T3 sequence (P18089 1-450): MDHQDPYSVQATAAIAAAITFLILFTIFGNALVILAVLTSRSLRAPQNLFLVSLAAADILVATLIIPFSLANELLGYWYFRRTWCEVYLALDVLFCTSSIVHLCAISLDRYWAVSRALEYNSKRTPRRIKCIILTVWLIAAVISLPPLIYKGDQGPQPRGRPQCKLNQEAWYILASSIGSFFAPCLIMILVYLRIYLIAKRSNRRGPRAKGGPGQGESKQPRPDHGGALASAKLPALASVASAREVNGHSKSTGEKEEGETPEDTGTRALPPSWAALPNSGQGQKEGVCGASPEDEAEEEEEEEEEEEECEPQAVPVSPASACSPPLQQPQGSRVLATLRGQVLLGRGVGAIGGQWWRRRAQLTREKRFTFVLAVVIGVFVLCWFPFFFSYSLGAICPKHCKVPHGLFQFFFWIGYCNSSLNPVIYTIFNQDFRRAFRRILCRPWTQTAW

[5] = target: human β1‐adrenoceptor (Homo sapiens, UniProt P08588); settings: for IC50 (log) β1: printed as log IC50 bound (negative) in the Log KD β1 column, 3H-CGP12177
[6] = fold, higher affinity at α2C than α2A, 1 = no selectivity
[7] = fold, higher affinity at α2C than α2B, 1 = no selectivity
[8] = given as log KD (negative values), 3H-rauwolscine whole cell binding, CHO cells, mean ± s.e.mean
[9] = fold, higher affinity at α2A than α2B, 1 = no selectivity
[10] = log KD (negative), apparent KD: maximum concentration inhibited most but not all specific binding, IC50 from extrapolated curve

Sequence of human β2‐adrenoceptor (P07550 whole entry): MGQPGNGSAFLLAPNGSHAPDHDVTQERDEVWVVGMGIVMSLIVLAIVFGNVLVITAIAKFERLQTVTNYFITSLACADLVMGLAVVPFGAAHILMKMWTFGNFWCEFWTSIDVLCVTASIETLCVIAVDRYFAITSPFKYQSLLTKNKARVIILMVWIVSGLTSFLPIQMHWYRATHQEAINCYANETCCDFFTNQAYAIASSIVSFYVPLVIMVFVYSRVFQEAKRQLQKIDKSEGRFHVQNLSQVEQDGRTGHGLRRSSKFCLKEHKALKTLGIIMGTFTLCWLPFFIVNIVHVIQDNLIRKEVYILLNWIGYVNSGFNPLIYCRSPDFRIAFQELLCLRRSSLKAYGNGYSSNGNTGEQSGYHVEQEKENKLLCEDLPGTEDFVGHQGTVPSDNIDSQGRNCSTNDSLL
Sequence of human β1‐adrenoceptor (P08588 whole entry): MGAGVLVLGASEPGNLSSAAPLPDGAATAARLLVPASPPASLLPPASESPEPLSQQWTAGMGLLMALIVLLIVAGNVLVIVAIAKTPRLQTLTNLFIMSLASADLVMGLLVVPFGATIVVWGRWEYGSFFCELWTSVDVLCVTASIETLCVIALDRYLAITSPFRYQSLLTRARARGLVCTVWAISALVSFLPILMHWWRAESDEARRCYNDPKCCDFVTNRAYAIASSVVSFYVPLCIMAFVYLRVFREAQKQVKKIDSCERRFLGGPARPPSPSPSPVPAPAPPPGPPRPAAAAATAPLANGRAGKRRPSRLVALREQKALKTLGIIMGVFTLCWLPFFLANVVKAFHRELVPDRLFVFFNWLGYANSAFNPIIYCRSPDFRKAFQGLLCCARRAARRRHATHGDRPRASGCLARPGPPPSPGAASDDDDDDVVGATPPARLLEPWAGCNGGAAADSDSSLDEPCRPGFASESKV

Selectivity ratio α2A vs α2C (α2C-selective) [1, 6]: 5.1
Selectivity ratio α2B vs α2C (α2C-selective) [1, 7]: 36.3
Log KD α2C [1, 8]: -7.50 ± 0.02
Selectivity ratio α2A vs α2B (α2A-selective) [2, 9]: 7.1
Log KD α2A [2, 8]: -6.79 ± 0.04
IC50 (log) β2 [3]: IC50>-5
Log KD α2B [4, 8]: -5.94 ± 0.09
IC50 (log) β1 [5]: IC50>-5
SMILES: COc1ccccc1N1CCN(CC2CN3C(=O)N(C)c4ccccc4C3=N2)CC1 (centres unmarked) [2-MPMDQ]

Selectivity ratio α2A vs α2C (α2C-selective) [1, 6]: 1.7
Selectivity ratio α2B vs α2C (α2C-selective) [1, 7]: 8.5
Log KD α2C [1, 8]: -7.07 ± 0.02
Selectivity ratio α2A vs α2B (α2A-selective) [2, 9]: 4.9
Log KD α2A [2, 8]: -6.83 ± 0.05
IC50 (log) β2 [3]: IC50>-4
Log KD α2B [4, 8]: -6.14 ± 0.08
Log KD β1 ([5]; given as log KD (negative values), 3H-CGP12177 whole cell binding, CHO cells, mean ± s.e.mean): No binding to -4
SMILES: O=C1Nc2ccccc2C2=NC(CN3CCN(c4ccccc4)CC3)CN12 (centres unmarked) [2-PMDQ]

IC50 [3]: > 100 µM
SMILES: COC(=O)C1=C(C)NC(C)=C(C(=O)OCCCN2CCC(c3ccccc3)(c3ccccc3)CC2)[C@H]1c1cccc([N+](=O)[O-])c1 [2‐niguldipine]

SMILES: COc1ccccc1N1CCN(CCCNc2c(C)c(=O)n(C)c(=O)n2C)CC1 [5-methyl-urapidil]
Log KD α2C [1, 8]: -5.81 ± 0.07
Log KD α2A [2, 8]: -5.18 ± 0.05
Log KD β2 [3]: -5.00 ± 0.07
Log KD α2B [4, 8]: -5.17 ± 0.05

SMILES: COc1ccccc1N1CCN(CCCNc2c(C)c(=O)n(C)c(=O)n2C)CC1 [5‐methyl‐urapidil]
Log KD α2C [1]: −5.81 ± 0.07
Log KD α2A [2]: −5.18 ± 0.05
Log KD β2 [3]: −5.00 ± 0.07
Log KD α2B [4]: −5.17 ± 0.05

Selectivity ratio α2A vs α2C (α2C-selective) [1, 6]: 18.2
Log KD α2C [1, 8]: -7.25 ± 0.14
Log KD α2A [2, 8]: -5.99 ± 0.06
IC50 (log) β2 [3]: IC50>-5
Selectivity ratio α2A vs α2B (α2B-selective column) ([4]; fold, higher affinity at α2B than α2A, 1 = no selectivity): 21.4
Selectivity ratio α2B vs α2C (α2B-selective column) ([4]; fold, higher affinity at α2B than α2C, 1 = no selectivity): 1.2
Log KD α2B [4, 8]: -7.32 ± 0.14
IC50 (log) β1 [5]: IC50>-5
SMILES: COc1ccccc1N1CCN(CCN2C(=O)c3ccccc3C(C)(C)C2=O)CC1 [ARC 239]

IC50 [1]: > 1000 µM
IC50 [2]: > 1000 µM
Log KD α2B [4, 8]: No bind to -3
Binding at α2B (result in words) ([4]; up to log concentration -3): No binding -3
SMILES: CC(C)(C)NCC(O)COc1cccc2[nH]c(=O)[nH]c12 (centres unmarked) [CGP12177]

Log KD α2C [1, 8]: -5.05 ± 0.04
Log KD α2A [2, 8]: -5.03 ± 0.03
IC50 (log) α2B [4]: IC50>-4
SMILES: Cc1ccc(OCC(O)C(C)NC(C)C)c2c1CCC2 (centres unmarked) [ICI 118551]

SMILES: CN1CC[C@]2(CCN3CCc4c(oc5ccccc45)[C@@H]3C2)N(C)C1=O [MK-912]
Log KD α2C [1]: -9.82 ± 0.11
Selectivity ratio α2A vs α2C (α2C-selective) [1]: 12.9
Selectivity ratio α2B vs α2C (α2C-selective) [1]: 45.7
Log KD α2A [2]: -8.71 ± 0.05
Selectivity ratio α2A vs α2B (α2A-selective) [2]: 3.6
IC50 (log) β2 [3]: IC50>-4
Log KD α2B [4, 8]: -8.16 ± 0.10
IC50 (log) β1 [5]: IC50>-4

SMILES: CC(C)(Cc1c[nH]c2ccc(Cl)cc12)NCCOc1ccccc1OCC1CC1 [RS17053]
Log KD α2C [1]: −6.35 ± 0.08
Selectivity ratio α2A vs α2C (higher affinity for α2C) ([1]; ratio of KD values): 1.4
Selectivity ratio α2B vs α2C (higher affinity for α2C) ([1]; ratio of KD values): 5.0
Log KD α2A [2]: −6.20 ± 0.11
Selectivity ratio α2A vs α2B (higher affinity for α2A) ([2]; ratio of KD values): 3.5
Log KD β2 [3]: −6.42 ± 0.06
Log KD α2B [4]: −5.65 ± 0.07
Log KD β1 [5]: −5.44 ± 0.04

Selectivity ratio α2A vs α2C (α2C-selective) [1, 6]: 10.7
Log KD α2C [1, 8]: -6.56 ± 0.13
Log KD α2A, apparent affinity (app) [2, 10]: -5.53 ± 0.12^app
IC50 (log) β2 [3]: IC50>-4
IC50 (log) α2B [4]: IC50>-4.5
IC50 (log) β1 [5]: IC50>-4
SMILES: COc1cc2nc(N3CCN(C(=O)COc4c(OC)cccc4C(C)C)CC3)nc(N)c2cc1OC [Rec15-2615]

SMILES: CC(C)(C)NC[C@H](O)COc1cccc2[nH]c(C#N)cc12 [S-cyanopindolol]
Log KD α2C [1, 8]: -6.15 ± 0.07
Log KD α2A [2, 8]: -5.56 ± 0.10
Log KD α2B, apparent affinity (app) [4, 10]: -4.82 ± 0.10^app
